From the NIST ThermoML archive (doi:10.1016/j.jct.2016.03.026)

Assay: xn = mol fraction of the nth substance listed
Conditions: 273.15 K, Fluid (supercritical or subcritical phases), x1 = 0.97; for mass density: Vibrating tube method; for speed of sound: Frequency=5 MHz, Pulse-echo method

O=C=O [carbon dioxide] + CO
Conditions | mass density [kg/m3] | speed of sound [m/s]
17075 kPa | 1005.11 | –
17100 kPa | 1005.21 | –
17125 kPa | 1005.3 | –
17150 kPa | 1005.42 | –
17175 kPa | 1005.49 | –
17200 kPa | 1005.63 | –
17225 kPa | 1005.7 | –
17250 kPa | 1005.78 | –
17275 kPa | 1005.9 | –
17300 kPa | 1006.03 | –
17325 kPa | 1006.1 | –
17350 kPa | 1006.19 | –
17375 kPa | 1006.3 | –
17400 kPa | 1006.36 | –
17425 kPa | 1006.5 | –
17450 kPa | 1006.55 | –
17475 kPa | 1006.68 | –
17500 kPa | 1006.76 | –
17525 kPa | 1006.86 | –
17550 kPa | 1006.92 | –
17575 kPa | 1007.06 | –
17600 kPa | 1007.11 | –
17625 kPa | 1007.24 | –
17650 kPa | 1007.37 | –
17675 kPa | 1007.42 | –
17700 kPa | 1007.56 | –
17725 kPa | 1007.61 | –
17750 kPa | 1007.74 | –
17775 kPa | 1007.82 | –
17800 kPa | 1007.92 | –
17825 kPa | 1008.05 | –
17850 kPa | 1008.1 | –
17875 kPa | 1008.22 | –
17900 kPa | 1008.28 | –
17925 kPa | 1008.41 | –
17950 kPa | 1008.47 | –
17975 kPa | 1008.58 | –
18000 kPa | 1008.63 | –
18025 kPa | 1008.76 | –
18050 kPa | 1008.81 | –
18075 kPa | 1008.93 | –
18100 kPa | 1009.05 | –
18125 kPa | 1009.17 | –
18150 kPa | 1009.21 | –
18175 kPa | 1009.33 | –
18200 kPa | 1009.44 | –
18225 kPa | 1009.49 | –
18250 kPa | 1009.61 | –
18275 kPa | 1009.68 | –
18300 kPa | 1009.76 | –
18325 kPa | 1009.88 | –
18350 kPa | 1009.93 | –
18375 kPa | 1010.03 | –
18400 kPa | 1010.15 | –
18425 kPa | 1010.26 | –
18450 kPa | 1010.33 | –
18475 kPa | 1010.41 | –
18500 kPa | 1010.52 | –
18525 kPa | 1010.58 | –
18550 kPa | 1010.7 | –
18575 kPa | 1010.82 | –
18600 kPa | 1010.88 | –
18625 kPa | 1010.99 | –
18650 kPa | 1011.1 | –
18675 kPa | 1011.15 | –
18700 kPa | 1011.25 | –
18725 kPa | 1011.35 | –
18750 kPa | 1011.46 | –
18775 kPa | 1011.49 | –
18800 kPa | 1011.59 | –
18825 kPa | 1011.7 | –
18850 kPa | 1011.81 | –
18875 kPa | 1011.88 | –
18900 kPa | 1011.94 | –
18925 kPa | 1012.05 | –
18950 kPa | 1012.15 | –
18975 kPa | 1012.26 | –
19000 kPa | 1012.37 | –
19025 kPa | 1012.45 | –
19050 kPa | 1012.49 | –
19075 kPa | 1012.6 | –
19100 kPa | 1012.7 | –
19125 kPa | 1012.77 | –
19150 kPa | 1012.83 | –
19175 kPa | 1012.93 | –
19200 kPa | 1013.04 | –
19225 kPa | 1013.15 | –
19250 kPa | 1013.25 | –
19275 kPa | 1013.27 | –
19300 kPa | 1013.37 | –
19325 kPa | 1013.48 | –
19350 kPa | 1013.58 | –
19375 kPa | 1013.61 | –
19400 kPa | 1013.72 | –
19425 kPa | 1013.82 | –
19450 kPa | 1013.91 | –
19475 kPa | 1013.95 | –
19500 kPa | 1014.05 | –
19525 kPa | 1014.15 | –
19550 kPa | 1014.24 | –
19575 kPa | 1014.34 | –
19600 kPa | 1014.44 | –
19625 kPa | 1014.47 | –
19650 kPa | 1014.56 | –
19675 kPa | 1014.66 | –
19700 kPa | 1014.76 | –
19725 kPa | 1014.86 | –
19750 kPa | 1014.88 | –
19775 kPa | 1014.98 | –
19800 kPa | 1015.08 | –
19825 kPa | 1015.19 | –
19850 kPa | 1015.29 | –
19875 kPa | 1015.31 | –
19900 kPa | 1015.41 | –
19910 kPa | – | 735.5
19925 kPa | 1015.5 | –
19950 kPa | 1015.6 | –
19975 kPa | 1015.7 | –
20000 kPa | 1015.77 | –
24940 kPa | – | 776.2
29980 kPa | – | 812.6
35030 kPa | – | 845.6
